# Tested on: TUBO tumors
# Assay: Mono- and combination therapies in HER2+ TUBO bearing mice (FIG. 8, FIG. 9)
# Format: in vivo, Balb/C mice
# Conditions: monotherapy
# Experimental: Balb/C mice or C57BL/6 mice received tumor cells on day 0 followed by different treatments; two doses of Taxol given intraperitoneally (i.p.) once a week; CDK inhibitor, abemaciclib was administered by oral gavage till end point; Anti-PD-L1 was given i.p. twice a week until end point; DC1 vaccine was given intratumorally.
# Balb/C mice bearing TUBO tumors were treated with intratumoral HER2-DC1 vaccine alone or anti-HER2 antibody or a combination of both.
# TUBO bearing mice were treated with intratumoral HER2-DC1 vaccine alone or Abemaciclib or a combination of both.
# Here, we can investigate the role of gut microbiome in response to combination therapy. […] Balb/C mice bearing TUBO tumors were treated with intratumoral HER-DC1 alone or anti-HER2 antibody (7.16.4+7.9.5) alone or combination of both. While CDK inhibitor, abemaciclib was given daily by oral gavage alone or in combination with intratumoral HER2-DC1.
smiles,measurement,value
"CC(=O)O[C@H]1C(=O)[C@@]2(C)[C@H]([C@H](OC(=O)c3ccccc3)[C@]3(O)C[C@H](OC(=O)[C@H](O)[C@@H](NC(=O)c4ccccc4)c4ccccc4)C(C)=C1C3(C)C)[C@]1(OC(C)=O)CO[C@@H]1C[C@@H]2O [taxol, paclitaxel]",tumor growth,modestly delayed tumor growth
